# Where two headings read alike, the source gives them in different places.
# How the values were obtained:
# Format in all cases: cell-based
# [1] = in vitro; conditions: African green monkey
# Protocol: (§1) Potential cytotoxic effects of the compounds were evaluated in uninfected quiescent Vero-B or Vero-M cells. Cells were seeded at 5×10^4 cells/well in a 96-well plate in the presence of two-fold serial dilutions (ranging from 50 μg/mL-0.004 μg/mL) of compound and incubated for 4 to 7 days. Culture medium was discarded and 100 μL 3-(4,5-dimethylthiazol-2-yl)-5-(3-carboxymethoxyphenyl)-2-(4-sulfophenyl)-2H-tetrazolium/phenazinemethosuIfate (MTS/PMS; Promega, Leiden, The Netherlands) in PBS was added to each well. Following a 2-hour incubation period at 37° C., the optical density was determined at 498 nm. Cytotoxic activity was calculated using the following formula: % cell viability=100× (ODcompound/ODCC), where ODcompound and ODCC correspond to the optical density at 498 nm of the uninfected cell cultures treated with compound and that of uninfected, untreated cell cultures, respectively. The 50% cytotoxic concentration (i.e., the concentration that reduces the total cell number with 50%; CC50) was calculated using linear interpolation.
# [2] = tested on: DENV-2 NGC; test: Antiviral activity against DENV-2 in Vero-B cells (viral RNA load by RT-qPCR); conditions: Dengue virus, DENV2, 96 h; DENV-2, Vero-B cells, inhibition of viral RNA replication by 50%, 4 days
# [3] = tested on: DENV-1 Djibouti strain D1/H/IMTSSA/98/606; test: Antiviral activity against DENV-1 in Vero-B cells (viral RNA load by RT-qPCR); conditions: Dengue virus, DENV1, 168 h; DENV-1, Vero-B cells, inhibition of viral RNA replication by 50%, 7 days
# [4] = tested on: Vero-B cells; test: in vitro; conditions: African green monkey
# Protocol: as §1
# [5] = tested on: DENV-3 strain H87 prototype; test: Antiviral activity against DENV-3 in Vero-B cells (viral RNA load by RT-qPCR); conditions: Dengue virus
# [6] = tested on: DENV-4 strain H241; test: Antiviral activity against DENV-4 in Vero-M cells (viral RNA load by RT-qPCR); conditions: Dengue virus, DENV4, 120 h; DENV-4, Vero-M cells, inhibition of viral RNA replication by 50%, 5 days
# [7] = DENV3, 168 h, DENV-3, Vero-B cells, inhibition of viral RNA replication by 50%, 7 days, read-out: EC50
SMILES,CC50 ([1]; CC50 (μM)) [µM],EC50 [2] [µM],EC50 [3] [µM],CC50 [1] [µM],CC50 [4] [µM],"EC50 [5, 7] [µM]",EC50 [6] [µM],"EC50 ([5]; DENV3, Vero B, 168 h) [µM]"
COc1cc(NC(C(=O)N2CCSCC2c2ccccc2)c2ccc(C)cc2)cc(OC)c1 (stereo not drawn) [CPD-313],> 108,0.951,–,–,–,–,–,–
COc1cccc(NC(C(=O)c2nn(C)cc2-c2ccccc2)c2ccc(F)cc2)c1 (stereo not drawn) [CPD-008],> 120,0.096,2.64,> 120,> 120,1.01,4.74,–
COc1cc(NC(C(=O)N2CCCCC2c2ccccc2)c2ccc(C)cc2)cc(OC)c1 (stereo not drawn) [CPD-027],–,1.22,2.08,–,–,7.23,–,–
COc1cncc(NC(C(=O)c2nn(C)cc2-c2ccccc2)c2ccc(OC)nc2)c1 (stereo not drawn) [CPD-012],> 116,71.3,–,–,–,–,–,–
COc1cc(NC(C(=O)N2CCCC2c2ccccc2)c2ccc(C)cc2)cc(OC)c1 (stereo not drawn) [CPD-028],> 116,0.221,17.2,> 116,70,–,6.67,–
COc1cccc(NC(C(=O)c2cn(C)nc2-c2ccccc2)c2ccccc2)c1 (stereo not drawn) [CPD-026],> 126,–,2.39,–,–,–,–,–
COc1cccc(NC(C(=O)c2nn(C)cc2-c2ccccc2)c2cccnc2)c1 (stereo not drawn) [CPD-003],> 125,1.67,7.01,–,104,–,–,–
COc1cccc(NC(C(=O)c2nn(C)cc2-c2ccc(C)nc2)c2ccccc2)c1 (stereo not drawn) [CPD-019],80,39.9,–,–,–,–,–,–
COc1cc(NC(C(=O)c2nn(C)cc2-c2ccccc2)c2ccc(C)cc2)cc(OC)c1 (stereo not drawn) [CPD-015],> 113,0.016,0.132,> 113,> 113,–,3.15,1.19
COc1cccc(NC(C(=O)c2nn(C)cc2-c2ccccc2)c2ccccc2)c1 (stereo not drawn) [CPD-001],> 125,0.323,2.64,–,> 126,2.12,–,–
COc1cc(NC(C(=O)N2CCOCC2c2ccccc2)c2ccc(C)cc2)cc(OC)c1 (stereo not drawn) [CPD-312],> 112,5.65,–,–,–,–,–,–
COc1cccc(NC(C(=O)c2nn(C)cc2-c2cccc(F)c2)c2ccccc2)c1 (stereo not drawn) [CPD-006],> 120,0.517,–,–,–,–,–,–
COc1cccc(NC(C(=O)c2nn(C)cc2-c2ccc3scnc3c2)c2ccc(OC)nc2)c1 (stereo not drawn) [CPD-016],> 103,1.87,–,–,–,–,–,–
COc1cc(NC(C(=O)c2cn(C)c(Br)c2-c2ccccc2)c2ccccc2)cc(OC)c1 (stereo not drawn) [CPD-311],> 99,0.047,0.016,–,> 99,0.266,–,–
COc1cccc(NC(C(=O)c2c[nH]cc2-c2ccccc2)c2ccccc2)c1 (stereo not drawn) [CPD-024],–,0.207,1.53,10,–,1.91,1.59,–
COc1cccc(NC(C(=O)c2nn(C)cc2-c2ccccc2)c2cncc(F)c2)c1 (stereo not drawn) [CPD-004],> 120,1.55,9.78,–,> 120,–,–,–

SMILES,CC50 ([1]; CC50 (μM)) [µM],EC50 [2] [µM],EC50 [3] [µM],CC50 [1] [µM],CC50 [4] [µM],"EC50 [5, 7] [µM]",EC50 [6] [µM],"EC50 ([5]; DENV3, Vero B, 168 h) [µM]"
COc1cccc(NC(C(=O)c2nn(C)cc2-c2cccs2)c2ccc(OC)nc2)c1 (stereo not drawn) [CPD-018],> 115,1.27,–,–,–,–,–,–
COc1cccc(NC(C(=O)c2nn(C)cc2-c2ccc3c(c2)CCO3)c2ccc(OC)nc2)c1 (stereo not drawn) [CPD-017],> 106,1.64,–,–,–,–,–,–
COc1cccc(NC(C(=O)c2nn(C)cc2-c2ccccc2F)c2ccccc2)c1 (stereo not drawn) [CPD-005],> 120,0.383,–,–,–,–,–,–
COc1cccc(NC(C(=O)c2n[nH]cc2-c2ccccc2)c2ccccc2)c1 (stereo not drawn) [CPD-023],–,0.443,0.939,–,–,–,–,–
COc1cccc(NC(C(=O)c2nn(C)cc2-c2ccccc2)c2cc3ccccn3n2)c1 (stereo not drawn) [CPD-013],> 114,0.343,2.24,–,> 114,–,–,–
COc1cccc(NC(C(=O)c2nn(C)cc2-c2ccc(C#N)cc2)c2cc3ccccn3n2)c1 (stereo not drawn) [CPD-014],> 108,2.29,–,–,–,–,–,–
COc1cccc(NC(C(=O)c2nn(C)cc2-c2cncnc2)c2ccc(C)cc2)c1 (stereo not drawn) [CPD-009],> 120,3.29,–,–,–,–,–,–
COc1cccc(NC(C(=O)c2nn(C)cc2-c2ccncc2)c2ccc(C)cc2)c1 (stereo not drawn) [CPD-010],> 121,2.11,–,–,–,–,–,–
COc1cc(NC(C(=O)N2CCN(C)CC2c2ccccc2)c2ccc(C)cc2)cc(OC)c1 (stereo not drawn) [CPD-238],> 99,2.82,–,–,–,–,–,–
COc1cccc(NC(C(=O)c2nn(C)cc2-c2ccc(F)cc2)c2ccccc2)c1 (stereo not drawn) [CPD-002],> 120,0.095,2.09,> 120,> 120,0.794,8.21,–
COc1cccc(NC(C(=O)c2cscc2-c2ccccc2)c2ccccc2)c1 (stereo not drawn) [CPD-025],> 125,–,3.63,–,–,–,–,–
COc1cccc(NC(C(=O)c2nn(C)cc2-c2cnn(C)c2)c2ccccc2)c1 (stereo not drawn) [CPD-007],> 125,15.5,–,–,–,–,–,–
COc1cc(NC(C(=O)N2CCS(=O)(=O)CC2c2ccccc2)c2ccc(C)cc2)cc(OC)c1 (stereo not drawn) [CPD-314],> 101,4.47,–,–,–,–,–,–
COc1cccc(NC(C(=O)c2nn(C)cc2-c2ccccc2)c2cnc(OC)cn2)c1 (stereo not drawn) [CPD-011],> 116,0.745,–,–,–,–,–,–
COc1cccc(NC(C(=O)c2nn(C)cc2-c2c(C)noc2C)c2ccc(C)cc2)c1 (stereo not drawn) [CPD-020],> 116,13.2,–,–,–,–,–,–
COc1cc(NC(C(=O)N2CCCCCC2c2ccccc2)c2ccc(C)cc2)cc(OC)c1 (stereo not drawn) [CPD-242],> 109,1.16,–,–,–,–,–,–
